Results as given in patent publication US8722849B2, “Polypeptides” (Novo Nordisk A/S, priority 2011, dated 2014).
Converted amounts (≈) assume the structure as drawn. Read-outs that look alike come from different tables or passages of the source. Starred links: 1 amine or outer side, 2 acyl side, 3 side chain; linkers in the order of their positions; H or OH if unused. Positions of bridges follow the written chain, without caps; N, C: chain ends. Residues, ends and D or L forms follow the SMILES beside them. *: point of attachment. C20 diacid = O=C(O)CCCCCCCCCCCCCCCCCCC(=O)*; γGlu = O=C(O)[C@H](CCC(=O)[*:2])N[*:1]

Tests used:
[1] = Assay (III) ThT fibrillation assay for physical stability; format: physicochemical; conditions: ThT fibrillation assay
Procedure, shortened: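 Freshly prepared formulations, pH-adjusted, with 1 μM ThT; four or eight replicates incubated at 37 °C under 960 rpm orbital shaking. Fluorescence (ex 444/em 485 nm) read every 20 min; […]. Peptide concentration measured by RP-HPLC before and after the run.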

[2] = Assay (IV) determination of solubility; format: physicochemical
Procedure, shortened: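 Eight 100 mM buffers (glycylglycine pH 3.0–5.0, bistrispropane pH 6.0–8.0) each received an equal volume of polypeptide dissolved in water at ~500 nmol/ml. Soluble polypeptide was measured by HPLC following 18 hours at room temperature and centrifugation.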

[3] = bistrispropane buffer, pH 6, pH 6.0, read-out: Solubility pH 6.0
[4] = bistrispropane buffer, pH 6.5, pH 6.5, read-out: Solubility pH 6.5
[5] = bistrispropane buffer, pH 7, pH 7.0, read-out: Solubility pH 7.0
[6] = bistrispropane buffer, pH 7.5, pH 7.5, read-out: Solubility pH 7.5
[7] = bistrispropane buffer, pH 8, pH 8.0, read-out: Solubility pH 8.0
[8] = glycylglycine buffer, pH 3, pH 3.0, read-out: Solubility pH 3.0
[9] = glycylglycine buffer, pH 4, pH 4.0, 18 hours at room temperature, Table 2, read-out: Solubility pH 4.0
[10] = glycylglycine buffer, pH 4, pH 4.0, read-out: Solubility pH 4.0
[11] = glycylglycine buffer, pH 5, pH 5.0, read-out: Solubility pH 5.0

Row | SMILES | ThT pH 4.0 lag time (h) [1] | solubility at 18 h [2, 3] | solubility at 18 h [2, 4] | solubility at 18 h [2, 5] | solubility at 18 h [2, 6] | solubility at 18 h [2, 7] | solubility at 18 h [2, 8] | solubility at 18 h [2, 9] | solubility at 18 h [2, 10] | solubility at 18 h [2, 11] | solubility at 18 h ([2]; bistrispropane buffer, pH 7, pH 7.0, 18 hours at room temperature, Table 3, read-out: Solubility pH 7.0)
1 | CC[C@H](C)[C@H](NC(=O)[C@@H]1CCCN1C(=O)CNC(=O)[C@H](Cc1ccccc1)NC(=O)[C@H](CC(N)=O)NC(=O)[C@H](CC(N)=O)NC(=O)[C@H](CO)NC(=O)[C@H](CO)NC(=O)[C@H](Cc1c[nH]cn1)NC(=O)[C@H](Cc1c[nH]cn1)NC(=O)[C@H](CC(C)C)NC(=O)[C@H](Cc1ccccc1)NC(=O)[C@H](CCC(=O)O)NC(=O)[C@H](C)NC(=O)[C@H](CC(C)C)NC(=O)[C@H](CCCNC(=N)N)NC(=O)[C@H](CCC(N)=O)NC(=O)[C@@H](NC(=O)[C@H](C)NC(=O)[C@@H]1CSSC[C@H](NC(=O)[C@H](Cc2c[nH]cn2)NC(=O)[C@H](Cc2c[nH]cn2)NC(=O)[C@H](Cc2c[nH]cn2)NC(=O)CC[C@H](NC(=O)CCCCCCCCCCCCCCCCCCC(=O)O)C(=O)O)C(=O)N[C@@H](CCCNC(=N)N)C(=O)N[C@@H]([C@@H](C)O)C(=O)N[C@@H](C)C(=O)N[C@@H]([C@@H](C)O)C(=O)N1)[C@@H](C)O)C(=O)N[C@@H](CC(C)C)C(=O)N1CCC[C@H]1C(=O)N1CCC[C@H]1C(=O)N[C@H](C(=O)N[C@@H](CC(N)=O)C(=O)N[C@H](C(=O)NCC(=O)N[C@@H](CO)C(=O)N[C@@H](CC(N)=O)C(=O)N[C@H](C(=O)N[C@@H](Cc1ccc(O)cc1)C(N)=O)[C@@H](C)O)C(C)C)[C@@H](C)O [Example 22, N-alpha-[(S)-4-Carboxy-4-(19-carboxynonadecanoylamino)butyryl]-His-His-[His1,Arg3,Glu14,His17]-pramlintide] ({C20 diacid-γGlu}-HHHCRTATCATQRLAEFLHHSSNNFGPILPPTNVGSNTY-NH2; disulfide 4-9 (inferred)) | 2.7 h | > 200 µM | 57 µM (≈ 273 µg/mL) | 2 µM (≈ 9.56 µg/mL) | 1 µM (≈ 4.78 µg/mL) | 3 µM (≈ 14.3 µg/mL) | > 200 µM | > 200 µM | > 200 µM | > 200 µM | –
2 | CC[C@H](C)[C@H](NC(=O)[C@@H]1CCCN1C(=O)CNC(=O)[C@H](Cc1ccccc1)NC(=O)[C@H](CC(N)=O)NC(=O)[C@H](CC(N)=O)NC(=O)[C@H](CO)NC(=O)[C@H](CO)NC(=O)[C@H](Cc1c[nH]cn1)NC(=O)[C@H](Cc1c[nH]cn1)NC(=O)[C@H](CC(C)C)NC(=O)[C@H](Cc1ccccc1)NC(=O)[C@H](CCC(=O)O)NC(=O)[C@H](C)NC(=O)[C@H](CC(C)C)NC(=O)[C@H](CCCNC(=N)N)NC(=O)[C@H](CCC(N)=O)NC(=O)[C@@H](NC(=O)[C@H](C)NC(=O)[C@@H]1CSSC[C@H](NC(=O)[C@H](CCCCN)NC(=O)[C@H](CCC(=O)O)NC(=O)CC[C@H](NC(=O)CCCCCCCCCCCCCCCCCCC(=O)O)C(=O)O)C(=O)N[C@@H](CC(N)=O)C(=O)N[C@@H]([C@@H](C)O)C(=O)N[C@@H](C)C(=O)N[C@@H]([C@@H](C)O)C(=O)N1)[C@@H](C)O)C(=O)N[C@@H](CC(C)C)C(=O)N1CCC[C@H]1C(=O)N1CCC[C@H]1C(=O)N[C@H](C(=O)N[C@@H](CC(N)=O)C(=O)N[C@H](C(=O)NCC(=O)N[C@@H](CO)C(=O)N[C@@H](CC(N)=O)C(=O)N[C@H](C(=O)N[C@@H](Cc1ccc(O)cc1)C(N)=O)[C@@H](C)O)C(C)C)[C@@H](C)O [Example 26, N-alpha-[(S)-4-Carboxy-4-(19-carboxynonadecanoylamino)butyryl]-Glu-[Glu14,His17]-pramlintide] ({C20 diacid-γGlu}-EKCNTATCATQRLAEFLHHSSNNFGPILPPTNVGSNTY-NH2; disulfide 3-8 (inferred); C-terminus assumed) | 2 h | > 200 µM | > 200 µM | > 200 µM | > 200 µM | > 200 µM | > 200 µM | > 200 µM | > 200 µM | > 200 µM | > 200 µM
